In patent US9120770B2, “Substituted pyridine and pyrazine compounds as PDE4 inhibitors” (DART NEUROSCIENCE (CAYMAN) LTD., priority 2013, dated 2015):

Target: PDE4D3 (Homo sapiens, UniProt Q08499)
Sequence (Q08499 1-673 isoform Q08499-2): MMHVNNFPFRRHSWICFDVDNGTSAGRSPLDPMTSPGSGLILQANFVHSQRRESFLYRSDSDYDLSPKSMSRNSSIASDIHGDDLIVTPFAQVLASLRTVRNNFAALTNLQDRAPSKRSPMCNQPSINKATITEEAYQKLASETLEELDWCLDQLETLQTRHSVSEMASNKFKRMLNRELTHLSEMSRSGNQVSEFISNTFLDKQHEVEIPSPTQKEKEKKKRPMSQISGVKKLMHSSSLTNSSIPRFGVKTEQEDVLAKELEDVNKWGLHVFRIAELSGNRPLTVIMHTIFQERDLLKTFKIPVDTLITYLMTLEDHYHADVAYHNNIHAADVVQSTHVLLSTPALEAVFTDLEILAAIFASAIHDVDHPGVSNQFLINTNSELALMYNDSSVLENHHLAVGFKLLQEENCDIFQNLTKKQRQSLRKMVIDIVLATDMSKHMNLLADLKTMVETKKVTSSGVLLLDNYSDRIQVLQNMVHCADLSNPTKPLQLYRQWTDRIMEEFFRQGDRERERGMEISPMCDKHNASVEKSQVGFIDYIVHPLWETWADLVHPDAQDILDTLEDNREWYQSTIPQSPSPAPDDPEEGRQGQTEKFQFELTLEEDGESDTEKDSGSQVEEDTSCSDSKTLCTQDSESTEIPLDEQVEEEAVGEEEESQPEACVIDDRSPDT

SMILES	EC50
CC(C)Oc1cccc(-c2cc(Cc3cnc(N)nc3)cnc2OC(F)F)c1 [Example 42, 5-{[6-(Difluoromethoxy)-5-[3-(propan-2-yloxy)phenyl]pyridin-3-yl]methyl}pyrimidin-2-amine]	1 to 10 µM
CCOc1ncc(Cn2ncnc2COC)nc1-c1cccc(OC(F)F)c1 [Example 190, 3-[3-(Difluoromethoxy)phenyl]-2-ethoxy-5-{[5-(methoxymethyl)-1H-1,2,4-triazol-1-yl]methyl}pyrazine]	1 to 10 µM
CCOC(=O)C1(c2ccc(Cc3cnc(OC(F)F)c(-c4cccc(Cl)c4)c3)cc2)CC1 [Example 101, Ethyl 1-(4-{[5-(3-chlorophenyl)-6-(difluoromethoxy)pyridin-3-yl]methyl}phenyl)cyclopropane-1-carboxylate]	1 to 10 µM
COc1cccc(-c2cc(Cn3cncn3)cnc2OC)n1 [Example 4, 2-Methoxy-3-(6-methoxypyridin-2-yl)-5-(1H-1,2,4-triazol-1-ylmethyl)pyridine]	> 10 µM
NCc1ncn(Cc2cnc(OC(F)F)c(-c3cccc(Cl)c3)c2)n1 [Example 240, (1-{[5-(3-Chlorophenyl)-6-(difluoromethoxy)pyridin-3-yl]methyl}-1H-1,2,4-triazol-3-yl)methanamine]	1 to 10 µM
COc1ncc(Cc2cnc(Cl)nc2)cc1-c1cccc(Cl)c1 [Example 2, 2-Chloro-5-{[5-(3-chlorophenyl)-6-methoxypyridin-3-yl]methyl}pyrimidine]	0.1 to 1 µM
COc1ncc(Cn2cc(N)cn2)nc1-c1cccc(Cl)c1 [Example 236, 1-{[6-(3-Chlorophenyl)-5-methoxypyrazin-2-yl]methyl}-1H-pyrazol-4-amine]	> 10 µM
COc1ncc(Cn2cnc(C(F)(F)F)n2)cc1-c1cccc(Cl)c1 [Example 146, 3-(3-Chlorophenyl)-2-methoxy-5-{[3-(trifluoromethyl)-1H-1,2,4-triazol-1-yl]methyl}pyridine]	0.1 to 1 µM
COc1ncc(Cn2cnc(N)n2)cc1-c1cccc(C)c1 [Example 222, 1-{[6-Methoxy-5-(3-methylphenyl)pyridin-3-yl]methyl}-1H-1,2,4-triazol-3-amine]	0.1 to 1 µM
COc1ncc(Cc2ccc(C(N)=O)nc2)nc1-c1cccc(Cl)c1 [Example 90, 5-{[6-(3-Chlorophenyl)-5-methoxypyrazin-2-yl]methyl}pyridine-2-carboxamide]	0.1 to 1 µM
CCOc1ncc(Cn2cc(Cl)c(CO)n2)cc1-c1cccc(Cl)c1 [Example 277, (4-Chloro-1-{[5-(3-chlorophenyl)-6-ethoxypyridin-3-yl]methyl}-1H-pyrazol-3-yl)methanol]	0.1 to 1 µM
COc1ncnn1Cc1cnc(OC(F)F)c(-c2cccc(Cl)c2)c1 [Example 215, 3-(3-Chlorophenyl)-2-(difluoromethoxy)-5-[(5-methoxy-1H-1,2,4-triazol-1-yl)methyl]pyridine]	1 to 10 µM
Cc1noc(C)c1Cc1cnc(OC(F)F)c(-c2cccc(Cl)c2)c1 [Example 99, 3-(3-Chlorophenyl)-2-(difluoromethoxy)-5-[(dimethyl-1,2-oxazol-4-yl)methyl]pyridine]	1 to 10 µM
COc1ncc(Cn2cc(C#N)cn2)cc1-c1cccc(Cl)c1 [Example 170, 1-{[5-(3-Chlorophenyl)-6-methoxypyridin-3-yl]methyl}-1H-pyrazole-4-carbonitrile]	0.1 to 1 µM
CC(C)(O)c1ccc(Cc2cnc(OC(F)F)c(-c3cccc(Cl)c3)c2)cn1 [Example 252, 2-(5-{[5-(3-Chlorophenyl)-6-(difluoromethoxy)pyridin-3-yl]methyl}pyridin-2-yl)propan-2-ol]	0.1 to 1 µM
CCOc1cccc(-c2cc(Cn3cnc(N)n3)cnc2OC)c1 [Example 224, 1-{[5-(3-Ethoxyphenyl)-6-methoxypyridin-3-yl]methyl}-1H-1,2,4-triazol-3-amine]	0.1 to 1 µM
COc1ncc(Cc2ccc(NC(N)=O)cc2)cc1-c1cccc(Cl)c1 [Example 26, (4-{[5-(3-Chlorophenyl)-6-methoxypyridin-3-yl]methyl}phenyl)urea]	0.1 to 1 µM
COc1ncc(Cc2ccc(NC(=O)NC3COC3)cc2)cc1-c1cccc(Cl)c1 [Example 31, 1-(4-{[5-(3-Chlorophenyl)-6-methoxypyridin-3-yl]methyl}phenyl)-3-(oxetan-3-yl)urea]	1 to 10 µM
COc1ncc(C(N)c2ccc(F)cc2)cc1-c1cccc(Cl)c1 (centres unmarked) [Example 18, [5-(3-Chlorophenyl)-6-methoxypyridin-3-yl](4-fluorophenyl)methanamine]	1 to 10 µM
COc1ncc(Cn2cncn2)cc1-c1cccc(C)n1 [Example 11, 2-Methoxy-3-(6-methylpyridin-2-yl)-5-(1H-1,2,4-triazol-1-ylmethyl)pyridine]	> 10 µM
COc1ncc(Cn2cncn2)cc1-c1cc(F)cc(F)c1 [Example 139, 3-(3,5-Difluorophenyl)-2-methoxy-5-(1H-1,2,4-triazol-1-ylmethyl)pyridine]	0.1 to 1 µM

More lines, now with the values ahead:

EC50	SMILES
0.1 to 1 µM	COc1ncc(Cn2cncn2)cc1-c1cccc(C)c1 [Example 5, 2-Methoxy-3-(3-methylphenyl)-5-(1H-1,2,4-triazol-1-ylmethyl)pyridine]
0.1 to 1 µM	FC(F)Oc1ncc(Cn2cnc(C3CC3)n2)cc1-c1cccc(Cl)c1 [Example 128, 3-(3-Chlorophenyl)-5-[(3-cyclopropyl-1H-1,2,4-triazol-1-yl)methyl]-2-(difluoromethoxy)pyridine]
< 0.1 µM	COc1ncc(Cn2cnc(CO)n2)cc1-c1cccc(OC(F)F)c1 [Example 202, [1-({5-[3-(Difluoromethoxy)phenyl]-6-methoxypyridin-3-yl}methyl)-1H-1,2,4-triazol-3-yl]methanol]
< 0.1 µM	COc1ncc(Cn2cnc(C)n2)cc1-c1cccc(Cl)c1 [Example 143, 3-(3-Chlorophenyl)-2-methoxy-5-[(3-methyl-1H-1,2,4-triazol-1-yl)methyl]pyridine]
< 0.1 µM	COc1ncc(Cc2cnc(C(N)=O)nc2)nc1-c1cccc(OC(F)F)c1 [Example 125, 5-({6-[3-(Difluoromethoxy)phenyl]-5-methoxypyrazin-2-yl}methyl)pyrimidine-2-carboxamide]
< 0.1 µM	COc1ncc(Cc2cnc(C(N)=O)nc2)nc1-c1cccc(Cl)c1 [Example 123, 5-{[6-(3-Chlorophenyl)-5-methoxypyrazin-2-yl]methyl}pyrimidine-2-carboxamide]
< 0.1 µM	CCOc1ncc(Cc2cnc(N)nc2)nc1-c1cccc(OC(F)F)c1 [Example 104, 5-({6-[3-(Difluoromethoxy)phenyl]-5-ethoxypyrazin-2-yl}methyl)pyrimidin-2-amine]
0.1 to 1 µM	OCc1ncn(Cc2cnc(OC(F)F)c(-c3ccnc(OC(F)F)c3)c2)n1 [Example 207, (1-{[6-(Difluoromethoxy)-5-[2-(difluoromethoxy)pyridin-4-yl]pyridin-3-yl]methyl}-1H-1,2,4-triazol-3-yl)methanol]
< 0.1 µM	COc1ncc(Cn2ccc(CO)n2)cc1-c1cccc(OC(F)F)c1 [Example 275, [1-({5-[3-(Difluoromethoxy)phenyl]-6-methoxypyridin-3-yl}methyl)-1H-pyrazol-3-yl]methanol]
< 0.1 µM	CNc1ncc(Cc2cnc(OC)c(-c3cccc(Cl)c3)n2)cn1 [Example 56, 5-{[6-(3-Chlorophenyl)-5-methoxypyrazin-2-yl]methyl}-N-methylpyrimidin-2-amine]
0.1 to 1 µM	CCOc1ncc(Cn2ncnc2COC)cc1-c1cccc(OC(F)F)c1 [Example 166, 3-[3-(Difluoromethoxy)phenyl]-2-ethoxy-5-{[5-(methoxymethyl)-1H-1,2,4-triazol-1-yl]methyl}pyridine]
< 0.1 µM	COc1ncc(Cn2ccnc2)nc1-c1cccc(Cl)c1 [Example 183, 3-(3-Chlorophenyl)-5-(1H-imidazol-1-ylmethyl)-2-methoxypyrazine]
0.1 to 1 µM	COc1ncc(Cc2ccc(N(C)C)nc2)cc1-c1cccc(Cl)c1 [Example 34, 5-{[5-(3-Chlorophenyl)-6-methoxypyridin-3-yl]methyl}-N,N-dimethylpyridin-2-amine]
< 0.1 µM	COc1ncc(Cn2cnc(C)n2)cc1-c1cccc(F)c1 [Example 151, 3-(3-Fluorophenyl)-2-methoxy-5-[(3-methyl-1H-1,2,4-triazol-1-yl)methyl]pyridine]
0.1 to 1 µM	FC(F)Oc1ncc(Cc2cnoc2)cc1-c1cccc(Cl)c1 [Example 97, 3-(3-Chlorophenyl)-2-(difluoromethoxy)-5-(1,2-oxazol-4-ylmethyl)pyridine]
< 0.1 µM	COc1ncc(Cn2cc(CO)cn2)cc1-c1cccc(OC(F)F)c1 [Example 272, [1-({5-[3-(Difluoromethoxy)phenyl]-6-methoxypyridin-3-yl}methyl)-1H-pyrazol-4-yl]methanol]
< 0.1 µM	CCOc1ncc(Cn2cnc(CO)n2)cc1-c1cccc(OC(F)F)c1 [Example 201, [1-({5-[3-(Difluoromethoxy)phenyl]-6-ethoxypyridin-3-yl}methyl)-1H-1,2,4-triazol-3-yl]methanol]
0.1 to 1 µM	CCOc1ncc(Cn2ncc(Cl)c2CO)cc1-c1cccc(Cl)c1 [Example 278, (4-Chloro-1-{[5-(3-chlorophenyl)-6-ethoxypyridin-3-yl]methyl}-1H-pyrazol-5-yl)methanol]
< 0.1 µM	CCOc1ncc(Cn2cc(CO)nn2)cc1-c1cccc(OC(F)F)c1 [Example 263, [1-({5-[3-(Difluoromethoxy)phenyl]-6-ethoxypyridin-3-yl}methyl)-1H-1,2,3-triazol-4-yl]methanol]
< 0.1 µM	NCc1cncc(Cc2cnc(OC(F)F)c(-c3cccc(Cl)c3)c2)c1 [Example 71, (5-{[5-(3-Chlorophenyl)-6-(difluoromethoxy)pyridin-3-yl]methyl}pyridin-3-yl)methanamine]
< 0.1 µM	FC(F)Oc1ncc(Cc2cn[nH]c2)cc1-c1cccc(Cl)c1 [Example 28, 5-((1H-Pyrazol-4-yl)methyl)-3-(3-chlorophenyl)-2-(difluoromethoxy)pyridine]
< 0.1 µM	CCOc1ncc(Cc2ccc(C#N)nc2)nc1-c1cccc(OC(F)F)c1 [Example 103, 5-({6-[3-(Difluoromethoxy)phenyl]-5-ethoxypyrazin-2-yl}methyl)pyridine-2-carbonitrile]
< 0.1 µM	COc1ncc(Cc2ccc(C(N)=O)cc2)cc1-c1cccc(Cl)c1 [Example 27, 4-{[5-(3-Chlorophenyl)-6-methoxypyridin-3-yl]methyl}benzamide]
